Where “and” joins values, the source holds several entries; their conditions need not be identical. Identical values can stand only once.
Legend:
[1] = biological target: T1, E22G globulomer (beta amyloid 1-42, Arctic mutation) (Homo sapiens, UniProt P05067, E693G); assay: NMPA capture of E22G globulomer; assay type: binding; settings: neutrally charged mutant; FIG. 8
T1 construct: Three beta amyloid 1-42 peptides were generated to test the role of E22; purchased Anaspec
From the text: Three beta amyloid 1-42 peptides were generated to test the role of E22: a wild-type peptide, a mutant peptide containing Arctic mutation E22G with a neutral charge, and a mutant peptide containing Italian mutation E22K with a positive charge. Synthetic peptides were commercially available from Anaspec.
Mutant peptides were oligomerized according to the methods described in Example 3.
NMPA was used to evaluate the ability of PSR1 to capture the E22G globulomer. The methods used are described in Example 2.

Abeta 1-40 monomer = biological target: T2, Abeta 1-40 monomer (Homo sapiens, UniProt P05067); assay: Globulomer capture assay in CSF (Example 6): Abeta 1-40 noise; assay type: binding; settings: Abeta 1-40 signal (noise), CSF samples
T2 construct: Abeta 1-40 monomer capture level; from tissue; host or cells: cerebrospinal fluid (matrix of the assay)
Procedure: A series of new potential aggregate-specific binding reagents were designed as shown below and conjugated onto magnetic Dynal M270 beads as described in Example 2. Typically 7-12 nmol of ligand (each candidate aggregate-specific binding reagent) was coated onto 1 mg of beads.
Aliquots of the beads (typically 3 ul) were added to wells of a 96 well plate, followed by sample (with or without Abeta 1-42 globulomer (an Abeta42 oligomer model) spiked in 80:20 CSF:TBSTT, typically 125 ul). The plate was sealed and incubated for 1 hour at 37° C. with shaking. The plate was washed with aqueous solutions of detergent (typically polyethylene glycol sorbitan monolaurate and n-tetradecyl-N,N-dimethyl-3-ammonio-1-propanesulfonate) to remove ubound material and the residual buffer removed. A denaturing solution (typically 0.1-0.15 N NaOH) was added to each well and the plate heated to 80° C. for 30 min with shaking. After cooling the plate to room temperature, a neutralizing buffer (typically 0.12-0.18 M NaH2PO3 in 0.4% TWEEN20,) was added and the plate was shaken briefly at room temperature. The bead eluate was analyzed using either an Aβ42-specific ELISA or the MSD® 96-Well MULTI-SPOT® Human/Rodent [4G8] Abeta Triplex Ultra-Sensitive Assay from Meso Scale Discovery (Gaithersburg, Md.). For the Aβ42-specific assay, the samples were eluted from the beads and a detection antibody (4G8 HRP) was added to a plate bearing the Aβ42-specific antibody 12F4. The plate was incubated for 1 hour, washed, the substrate was added (SuperSignal West Femto Maximum Sensitivity Substrate from Thermo Fisher, Rockville, Md.), and the luminescence was measured. The MSD plate assay was performed in a similar fashion, according to the manufacturer's protocol.
In this experiment the preferred number of charges within a given scaffold was identified. An Ala/Lys peptide framework was utilized, where the inclusion of each Lys residue increases the peptides' net charge by +1. Six hexapeptides with increasing charge (+1→+6), AAAKAA, AAKKAA, AAKKKA, AKKKKA, AKKKKK, and KKKKKK, were prepared and conjugated on the beads. The ability of these beads to capture Abeta 1-42 globulomer spiked at 1 ng/mL into CSF was tested, and the result is shown in FIG. 25. The globulomer capture level (“42 1 ng/ml” or the closed bars) was compared to the background signal of Abeta 1-42 detected in the unspiked CSF (“42 0 ng/ml”) and the background signal of Abeta 1-40 detected in unspiked CSF (“40 0 ng/ml”) or CSF spiked with AB42 oligomers “40 1 ng/ml”. The charge density, as conjugated to the magnetic beads, of each reagent evaluated in this experiment is shown below in Table 8.

[2] = biological target: T3, AA-related moieties (serum amyloid A aggregates) (Mus musculus, UniProt P05367); assay: PSR-1 bead-based capture of AA species from spleen homogenates; assay type: binding
T3 construct: These experiments indicate that PSR1-coated beads can capture AA-related moieties; from tissue; host or cells: spleen homogenate of mice with induced AA amyloidosis
Procedure: Amyloid enhancing factor (AEF) was extracted from amyloid-laden liver as described earlier, and used for amyloid induction in four different groups of mice. Each mouse received 20 ug of protein extract as an intravenous injection in the tail vein and systemic inflammation was stimulated by concomitant subcutaneous injection of 0.2 ml 1% silver nitrate (AgNO3). Further inflammatory stimuli were given once a week on day 7, 14 and 21. Mice were sacrificed in several time points on day 5, 9, 16 and 23. Control mice received only single silver nitrate injection and were sacrificed 16 hrs later.
10% spleen homogenates were prepared in PBS, […], using an ultra-sound tissue homogenizator. Homogenates were centrifuged at 200×g for 1 min and the supernatants were used for the PSR1 bead-based capture assay. For immunoblotting analysis the PBS-insoluble tissue pellet was solubilised in 8M urea for 24 hrs on a wheel at room temperature.
PSR1-conjugated beads were washed two times with 1 ml of TBS-TT (TBS, 1% TritonX, 1% Tween20) before incubation with 10% spleen homogenate in a total volume of 100 μl TBS-TT for 1 hr at 37° C. and under shaking at 750 rpm. […] 150 ul of eluate was aspirated from the beads and the presence of SAA/AA proteins were analysed using the mouse SAA ELISA from Tridelta Ltd. or by immunoblotting. […]

amylin fibrils = amylin fibrils (Homo sapiens, UniProt P10997); assay: MPA of in vitro synthesized amylin; assay type: binding; settings: buffer and plasma; FIG. 45
263K prion infectivity = tested on: 263K prion infectivity; set-up: species or system Tg(SHaPrP) mice; settings: mouse, in vivo

T3 sequence (P05367 20-94 limits assumed): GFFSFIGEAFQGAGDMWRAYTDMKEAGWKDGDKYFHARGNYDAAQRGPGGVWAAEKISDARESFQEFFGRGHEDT
amylin fibrils, sequence (P10997 34-70 limits assumed): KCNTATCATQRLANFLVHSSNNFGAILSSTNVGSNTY

Nab-Nab-Nab-Nbn-Nab-Nbn [PSR1]
capture of E22G globulomer [1]: not captured
40, 1 ng/ml average reading (Abeta 1-40 monomer): 234.5 RLUs
SAA detected in eluates (sandwich ELISA) ([2]; 3 uL PSR1 beads, spleen homogenate with splenic AA vs untreated control): SAA could be detected only in the eluates from the AA-containing sample
SAA detected in eluates after denaturation of input ([2]; denatured, buffered and undenatured AA-containing samples, FIG. 44): SAA could be detected only in the eluates from undenatured or buffered AA-containing samples
binding to amylin fibrils over monomers (amylin fibrils): bind preferentially to in vitro-synthesized amylin fibrils over amylin monomers in both buffer (A) and plasma (B)
125 μl pooled plasma corresponds to 30 μl of a dilution of 263 K hamster brain homogenate (263K prion infectivity): 10^−8 dilution of 263 K and 10^−7 dilution of 263 K
Attack rate (Clinical TSE/total inoculated) (263K prion infectivity): 100% (8/8) and 50% (2/4) and 100% (4/4) and 81% (13/16)
Mean incubation period (days) (263K prion infectivity): 74 ± 3 dpi and 76 ± 5 dpi and 94 ± 5 dpi
capture and transmission of prion infectivity (263K prion infectivity): capture prion infectivity from prion-infected blood samples and transmit it with high efficiency to Tg(SHaPrP) mice
incubation period (days) (263K prion infectivity): 56, 85 days
mean incubation times (263K prion infectivity): 74-94 days post inoculation
